Assay results as given in patent US10220083B2 (priority 2014, dated 2019).

Columns and labels:
[1] = system: human pneumococcal reference serum 007sp (pooled sera of humans immunized with Pneumovax); type: binding
mAb 1H8 [2] = test: Surface plasmon resonance with captured mAb 1H8; type: binding, mouse; settings: saccharide 18 at 20 μM, polysaccharides at 10 μg/mL in PBS
Procedure: Surface Plasmon Resonance was performed on a Biacore T100 instrument (GE Healthcare). Analysis was performed using the Mouse Antibody Capture Kit and Amine Coupling Kit (GE Healthcare) for immobilization. About 10000 response units (RU) of capture antibody were immobilized. A commercial mouse IgG (cat. no. 026502, Invitrogen, Carlsbad, US) was immobilized as a dummy in a reference cell (about 10000 RU). About 800 RU of mAb 1H8 were captured prior to every run using a mAb concentration of 50 μg/mL. Runs were performed using PBS as a running buffer and a flow rate of 30 μL/min with 60 s association and 120 s dissociation periods, respectively. Polysaccharides were used at a concentration of 10 μg/mL and saccharide 18 at 20 μM in PBS.

mAb 1H8 [3] = type: binding, mouse
mAb 1F1 = type: binding, mouse

SMILES | interaction with the antiserum from human vaccinated with Pneumovax23 [1] | recognition by antiserum from human vaccinated with Pneumovax23 (007sp) [1] | recognition by mAb 1H8 (surface plasmon resonance) (mAb 1H8 [2]) | binding of mAb 1H8 after inhibition with native SP8 polysaccharide (mAb 1H8 [3]) | recognition by mAb 1H8 (mAb 1H8 [3]) | binding of mAb 1F1 after inhibition with native SP8 polysaccharide (mAb 1F1) | recognition by mAb 1F1 (mAb 1F1)
NCCO[C@H]1OC(CO)[C@H](O[C@H]2OC(CO)[C@@H](O[C@@H]3OC(CO)[C@@H](O[C@@H]4OC(C(=O)O)[C@@H](O)[C@H](O)C4O)[C@H](O)C3O)[C@H](O)C2O)[C@H](O)C1O (stereo partly drawn) [saccharide 18, β-D-Glucopyranosyluronic acid-(1→4)β-D-glucoyranosyl-(1→4)-α-D-glucopyranosyl-(1→4)-α-D-galactopyranosyl-(1→1)-(2-amino)ethanol] | Robust interactions | recognized | specifically recognizes |  |  |  | 
NCCO[C@H]1OC(CO)[C@H](O[C@H]2OC(CO)[C@@H](O[C@@H]3OC(CO)[C@@H](O[C@@H]4OC(C(=O)O)[C@@H](O[C@H]5OC(CO)[C@H](O)[C@H](O)C5O)[C@H](O)C4O)[C@H](O)C3O)[C@H](O)C2O)[C@H](O)C1O (stereo partly drawn) [saccharide 55, α-D-galactopyranosyl-(1→4)-β-D-glucopyranosyluronate-(1→4)-β-D-glucoyranosyl-α-D-glucopyranosyl-(1→4)-α-D-galactopyranosyl-(1→1)-(2-amino)ethanol] |  |  |  | abrogated | recognized with similar intensities | abrogated | recognized with similar intensities
NCCO[C@H]1OC(CO)[C@H](O[C@H]2OC(CO)[C@@H](O[C@@H]3OC(CO)[C@@H](O[C@@H]4OC(C(=O)O)[C@@H](O[C@H]5OC(CO)[C@H](O[C@H]6OC(CO)[C@@H](O)[C@H](O)C6O)[C@H](O)C5O)[C@H](O)C4O)[C@H](O)C3O)[C@H](O)C2O)[C@H](O)C1O (stereo partly drawn) [saccharide 57, α-D-glucopyranosyl-(1→4)-α-D-galactopyranosyl-(1→4)-β-D-glucopyranosyluronate-(1→4)-β-D-glucoyranosyl-(1→4)-α-D-glucopyranosyl-(1→4)-α-D-galactopyranosyl-(1→1)-(2-amino)ethanol] |  |  |  | abrogated | recognized with similar intensities | abrogated | recognized with similar intensities
NCCO[C@H]1OC(CO)[C@H](O[C@H]2OC(CO)[C@@H](O[C@@H]3OC(CO)[C@@H](O[C@@H]4OC(CO)[C@@H](O)[C@H](O)C4O)[C@H](O)C3O)[C@H](O)C2O)[C@H](O)C1O (stereo partly drawn) [saccharide 60, β-D-Glucopyranosyl-(1→4)β-D-glucoyranosyl-(1→4)-α-D-glucopyranosyl-(1→4)-α-D-galactopyranosyl-(1→1)-(2-amino)ethanol] |  |  |  |  | recognized with similar intensities |  | recognized with similar intensities
NCCO[C@H]1OC(CO)[C@H](O[C@H]2OC(CO)[C@@H](O[C@@H]3OC(CO)[C@@H](O)[C@H](O)C3O)[C@H](O)C2O)[C@H](O)C1O (stereo partly drawn) [saccharide 62, β-D-Glucoyranosyl-(1→4)-α-D-glucopyranosyl-(1→4)-α-D-galactopyranosyl-(1→1)-(2-amino)ethanol] |  |  |  |  | recognized with similar intensities |  | recognized with similar intensities
